This note sets out measurements from patent US8759522B2, “Inhibitors of protein tyrosine kinase activity” (Methylgene Inc., priority 2008, dated 2014).

As usually defined, the pIC50 is the negative decadic logarithm of the IC50, by convention in mol/L.

pIC50: −log10 of the molar value.

T1 sequence (P35968 806-1356): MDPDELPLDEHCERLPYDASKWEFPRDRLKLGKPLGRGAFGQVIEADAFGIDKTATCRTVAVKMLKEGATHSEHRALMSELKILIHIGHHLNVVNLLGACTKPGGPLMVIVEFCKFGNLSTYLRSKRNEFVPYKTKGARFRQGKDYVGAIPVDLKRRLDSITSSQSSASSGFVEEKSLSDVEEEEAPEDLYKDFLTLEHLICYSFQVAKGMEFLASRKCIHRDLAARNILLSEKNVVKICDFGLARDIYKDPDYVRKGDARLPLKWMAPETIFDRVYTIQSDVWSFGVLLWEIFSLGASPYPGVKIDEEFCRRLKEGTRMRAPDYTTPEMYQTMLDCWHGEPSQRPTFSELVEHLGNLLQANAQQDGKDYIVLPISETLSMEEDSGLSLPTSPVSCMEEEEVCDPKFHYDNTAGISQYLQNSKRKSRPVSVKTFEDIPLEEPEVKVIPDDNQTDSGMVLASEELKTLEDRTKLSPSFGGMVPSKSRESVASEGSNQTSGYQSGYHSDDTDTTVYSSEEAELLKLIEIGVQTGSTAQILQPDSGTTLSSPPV

The first assay has as its target T1, VEGFR2 (KDR) (Homo sapiens, UniProt P35968).
T1 construct: made in house; host or cells: Sf9 cells (Spodoptera frugiperda), baculovirus (Bac-to-Bac)
In words: In vitro receptor tyrosine kinase assay (VEGF receptor KDR), DELFIA. Format: biochemical. The note with it: recombinant GST-VEGFR2 catalytic domain, ATP 0.6 uM, enzyme 5 nM. From the text: In Vitro Receptor Tyrosine Kinase Assay (VEGF Receptor KDR)
This test measures the ability of compounds to inhibit the enzymatic activity of recombinant human VEGF receptor enzymatic activity.
A 1.6-kb cDNA corresponding to the catalytic domain of VEGFR2 (KDR) (Genbank accession number AF035121 amino acid 806 to 1356) is cloned into the Pst I site of the pDEST20 Gateway vector (Invitrogen) for the production of a GST-tagged version of that enzyme. This constuct is used to generate recombinant baculovirus using the Bac-to-Bac™ system according to the manucfacturer's instructions (Invitrogen).
The GST-VEGFR2806-1356 protein is expressed in Sf9 cells (Spodoptera frugiperda) upon infection with recombinant baculovirus construct. Briefly, Sf9 cells grown in suspension and maintained in serum-free medium (Sf900 II supplemented with gentamycin) at a cell density of about 2×10^6 cells/ml are infected with the above-mentioned viruses at a multiplicity of infection (MOI) of 0.1 during 72 hours at 27° C. with agitation at 120 rpm on a rotary shaker. Infected cells are harvested by centrifugation at 398 g for 15 min. Cell pellets are frozen at −80° C. until purification is performed.
All steps described in cell extraction and purification are performed at 4° C. Frozen Sf9 cell pellets infected with the GST-VEGFR2806-1356 recombinant baculovirus are thawed and gently resuspended in Buffer A (PBS pH 7.3 supplemented with 1 μg/ml pepstatin, 2 μg/ml Aprotinin and leupeptin, 50 μg/ml PMSF, 50 μg/ml TLCK and 10 μM E64 and 0.5 mM DTT) using 3 ml of buffer per gram of cells. Suspension is Dounce homogenized and 1% Triton X-100 is added to the homogenate after which it is centrifuged at 22500 g, 30 min., 4° C. The supernatant (cell extract) is used as starting material for purification of GST-VEGFR2806-1356.
The supernatant is loaded onto a GST-agarose column (Sigma) equilibrated with PBS pH 7.3. Following a four column volume (CV) wash with PBS pH 7.3+1% Triton X-100 and 4 CV wash with buffer B (50 mM Tris pH 8.0, 20% glycerol and 100mM NaCl), bound proteins are step eluted with 5 CV of buffer B supplemented with 5 mM DTT and 15 mM glutathion. GST-VEGFR2806-1356 enriched fractions from this chromatography step are pooled based on U.V. trace i.e. fractions with high O.D.280. Final GST-VEGFR2806-1356 protein preparations concentrations are about 0.7 mg/ml with purity approximating 70%. Purified GST-VEGFR2806-1356 protein stocks are aliquoted and frozen at −80° C. prior to use in enzymatic assay.
Inhibition of VEGFR/KDR is measured in a DELFIA™ assay (Perkin Elmer). The substrate poly(Glu4, Tyr) is immobilized onto black high-binding polystyrene 96-well plates. The coated plates are washed and stored at 4° C. During the assay, the enzyme is pre-incubated with inhibitor and Mg-ATP on ice in polypropylene 96-well plates for 4 minutes, and then transferred to the coated plates. The subsequent kinase reaction takes place at 30° C. for 10-30 minutes. ATP concentrations in the assay are 0.6 uM for VEGFR/KDR (2× the Km). Enzyme concentration is 5 nM. After incubation, the kinase reactions are quenched with EDTA and the plates are washed. Phosphorylated product is detected by incubation with Europium-labeled anti-phosphotyrosine MoAb. After washing the plates, bound MoAb is detected by time-resolved fluorescence in a Gemini SpectraMax reader (Molecular Devices). Compounds are evaluated over a range of concentrations and IC50's (concentration of compounds giving 50% inhibition of enzymatic activity) are determined. In the table, “a” indicates inhibitory activity at a concentration of less than 250 nanomolar; “b” indicates inhibitory activity at a concentration ≧250 but <500 nanomolar, “c” indicates inhibitory activity at ≧500 but <1000 nanomolar; and “d” indicates inhibitory activity ≧1000 nanomolar.
With `COCCNCc1ccc(-c2cc3nccc(Oc4ccc(NC(=O)Nc5cccc(C(=O)N(C)C)c5)cc4F)c3s2)nc1`, the negative-log IC50 (pIC50) was over 6.60.
As to `COCCNCc1ccc(-c2cc3nccc(Oc4ccc(NC(=O)CC(=O)Nc5cccc(C(N)=O)c5)cc4F)c3s2)nc1`, the negative logarithm of the IC50 (pIC50) was 6.30 to 6.60.
Still for that read-out and setting: the same measure for `COCCNCc1ccc(-c2cc3nccc(Oc4ccc(NC(=O)CC(=O)Nc5cccc(S(C)(=O)=O)c5)cc4F)c3s2)nc1`: over 6.60; for `COCCN(Cc1ccc(-c2cc3nccc(Oc4ccc(NC(=O)Nc5cccc(C(=O)N(C)C)c5)cc4F)c3s2)nc1)C(C)=O`: over 6.60.
The same measure, in the same setting: with `COCCNCc1ccc(-c2cc3nccc(Oc4ccc(NC(=O)NC(C)C)cc4F)c3s2)nc1` the figure was 6.00 to 6.30; with `COCCNCc1ccc(-c2cc3nccc(Oc4ccc(NC(=O)Nc5ccc(F)cc5F)cc4F)c3s2)nc1`, over 6.60; with `O=C(Nc1ccc(Oc2ccnc3cc(-c4ccc(C5OCCCO5)cn4)sc23)c(F)c1)NC1CC1`, over 6.60.
On the same count and under the same terms, the same measure for `COCCN(Cc1ccc(-c2cc3nccc(Oc4ccc(NC(=O)Nc5cccc(S(C)(=O)=O)c5)cc4F)c3s2)nc1)C(=O)OC`: over 6.60; for `COC[C@H](C)NCc1ccc(-c2cc3nccc(Oc4ccc(NC(=O)NC5CC5)cc4F)c3s2)nc1`: over 6.60.
`COCCN(Cc1ccc(-c2cc3nccc(Oc4ccc(NC(=O)NC5CC5)cc4F)c3s2)nc1)C(=O)OC`: the negative logarithm of the IC50 (pIC50) was over 6.60.
For the molecule `CCOC(=O)N(CCOC)Cc1ccc(-c2cc3nccc(Oc4ccc(NC(=O)NC5CC5)cc4F)c3s2)nc1`, the pIC50 is over 6.60.
On the same count and under the same terms, the same measure for `COCCOCCOCCOCCNCc1ccc(-c2cc3nccc(Oc4ccc(NC(=O)NC5CC5)cc4F)c3s2)nc1` [drawing 129]: over 6.60.
Turning to `COCCNCc1cnc(-c2cc3nccc(Oc4ccc(NC(=O)NC5CC5)cc4F)c3s2)n1C` [drawing 131], the pIC50 is over 6.60.
Still for that read-out and setting: the same measure for `COCCNCc1cnc(-c2cc3nccc(Oc4ccc(NC(=O)Nc5ccc(F)cc5F)cc4F)c3s2)n1C` [drawing 134]: over 6.60; for `COCCN(Cc1cnc(-c2cc3nccc(Oc4ccc(NC(=O)NC5CC5)cc4F)c3s2)n1C)S(C)(=O)=O` [drawing 137]: over 6.60; for `COCCN(Cc1ccc(-c2cc3nccc(Oc4ccc(NC(=O)NC5CC5)cc4F)c3s2)nc1)C(=O)[C@H](N)C(C)C` [drawing 143]: over 6.60.
On to `COCCN(Cc1ccc(-c2cc3nccc(Oc4ccc(NC(=O)Nc5cccc(S(C)(=O)=O)c5)cc4F)c3s2)nc1)C(C)=O` [drawing 152], for which the negative logarithm of the IC50 (pIC50) is over 6.60.
The same measure, in the same setting: with `COCCNCc1ccc(-c2cc3nccc(Oc4ccc(NC(=O)NC5CCC5)cc4F)c3s2)nc1` [drawing 153] the figure was over 6.60.

In a further assay the test system is VEGF-dependent Erk phosphorylation in HUVEC cells. In words: VEGF-dependent Erk phosphorylation. It counts as cell-based. The note with it: Homo sapiens, 1.5 h compound, VEGF165 150 ng/ml, phospho ERK1/2 Western blot. From the text: VEGF-Dependent Erk Phosphorylation
HUVEC cells were purchased from Cambrex Bio Science Walkersville, Inc and cultured according to the vendor's instructions. The full-length coding sequence of VEGF165 was cloned using the Gateway Cloning Technology (Invitrogen) for baculovirus expression Sf9 cells. VEGF165 was purified from conditioned media using a NaCl gradient elution from a HiTrap heparin column (GE Healthcare Life Sciences) followed by an imidazole gradient elution from a HiTrap chelating column (GE Healthcare Life Sciences), then buffer stored in PBS supplemented with 0.1% BSA and filter sterilized
Cells were seeded at 8000 cells/well of a 96 wells plate and grown for 48 hours. Cells were then grown overnight in serum and growth factor-free medium and exposed for 1.5 h to compounds dilutions. Following a 15 min incubation in medium, VEGF165 (150 ng/ml) cells were lysed in ice-cold lysis buffer (50 mM HEPES, pH 7.4, 150 mM NaCl, 1.5 mM MgCl2, 1% Triton X-100, 10% glycerol) containing 1 mM 4-(2 aminoethyl)benzenesulfonyl fluoride hydrochloride, 200 μM sodium orthovanadate, 1 mM sodium fluoride, 10 μg/mL leupeptin, 10 μg/mL aprotinin, 1 μg/mL pepstatin and 50 μg/mL Na-p-tosyl-L-lysine chloromethyl ketone hydrochloride and processed as Western blots to detect anti-phospho ERK1/2 (T202/Y204) (Cell Signaling Technologies).
lysates samples from single treatment wells were separated on 5-20% SDS-PAGE gels and immunobloting was performed using Immobilon polyvinylidene difluoride membranes (Amersham) according to the manufacturer's instructions.
In general terms: Immunoblotting shows a protein as a band on a membrane.
`COCCNCc1ccc(-c2cc3nccc(Oc4ccc(NC(=O)Nc5cccc(C(=O)N(C)C)c5)cc4F)c3s2)nc1`: the pIC50 was over 6.60.
Same read-out and setting: with `COCCNCc1ccc(-c2cc3nccc(Oc4ccc(NC(=O)CC(=O)Nc5cccc(C(N)=O)c5)cc4F)c3s2)nc1` the figure was over 6.60.
On the same count and under the same terms, the same measure for `COCCNCc1ccc(-c2cc3nccc(Oc4ccc(NC(=O)CC(=O)Nc5cccc(S(C)(=O)=O)c5)cc4F)c3s2)nc1`: over 6.60; for `COCCN(Cc1ccc(-c2cc3nccc(Oc4ccc(NC(=O)Nc5cccc(C(=O)N(C)C)c5)cc4F)c3s2)nc1)C(C)=O`: over 6.60; for `COCCNCc1ccc(-c2cc3nccc(Oc4ccc(NC(=O)NC(C)C)cc4F)c3s2)nc1`: over 6.60.
On the same count and under the same terms, with `COCCNCc1ccc(-c2cc3nccc(Oc4ccc(NC(=O)Nc5ccc(F)cc5F)cc4F)c3s2)nc1` the figure was over 6.60; with `O=C(Nc1ccc(Oc2ccnc3cc(-c4ccc(C5OCCCO5)cn4)sc23)c(F)c1)NC1CC1`, over 6.60; with `COCCN(Cc1ccc(-c2cc3nccc(Oc4ccc(NC(=O)Nc5cccc(S(C)(=O)=O)c5)cc4F)c3s2)nc1)C(=O)OC`, over 6.60.
`COC[C@H](C)NCc1ccc(-c2cc3nccc(Oc4ccc(NC(=O)NC5CC5)cc4F)c3s2)nc1` had a pIC50 of over 6.60.
Still for that read-out and setting: the same measure for `CCOC(=O)N(CCOC)Cc1ccc(-c2cc3nccc(Oc4ccc(NC(=O)NC5CC5)cc4F)c3s2)nc1`: over 6.60; for `COCCOCCOCCOCCNCc1ccc(-c2cc3nccc(Oc4ccc(NC(=O)NC5CC5)cc4F)c3s2)nc1` [drawing 129]: over 6.60.
As to `COCCNCc1cnc(-c2cc3nccc(Oc4ccc(NC(=O)NC5CC5)cc4F)c3s2)n1C` [drawing 131], the pIC50 was over 6.60.
On the same count and under the same terms, the same measure for `COCCNCc1cnc(-c2cc3nccc(Oc4ccc(NC(=O)Nc5ccc(F)cc5F)cc4F)c3s2)n1C` [drawing 134]: over 6.60.
`COCCN(Cc1cnc(-c2cc3nccc(Oc4ccc(NC(=O)NC5CC5)cc4F)c3s2)n1C)S(C)(=O)=O` [drawing 137] gave a pIC50 of over 6.60.
Still for that read-out and setting: the same measure for `COCCN(Cc1ccc(-c2cc3nccc(Oc4ccc(NC(=O)NC5CC5)cc4F)c3s2)nc1)C(=O)[C@H](N)C(C)C` [drawing 143]: over 6.60; for `COCCN(Cc1ccc(-c2cc3nccc(Oc4ccc(NC(=O)Nc5cccc(S(C)(=O)=O)c5)cc4F)c3s2)nc1)C(C)=O` [drawing 152]: over 6.60; for `COCCNCc1ccc(-c2cc3nccc(Oc4ccc(NC(=O)NC5CCC5)cc4F)c3s2)nc1` [drawing 153]: over 6.60.
